Laboratory results reported in the supplement of paper PMC10307832.

Legend:
Assay in all cases: relative viability (nuclei count vs DMSO), 5 days (fraction); higher = more cells survive
Bleomycin + AZD7762 = compound: CC1=C(N=C(N=C1N)[C@H](CC(=O)N)NC[C@@H](C(=O)N)N)C(=O)N[C@@H]([C@H](C2=CN=CN2)OC3C(C(C(C(O3)CO)O)O)OC4C(C(C(C(O4)CO)O)OC(=O)N)O)C(=O)N[C@H](C)[C@H]([C@H](C)C(=O)N[C@@H]([C@@H](C)O)C(=O)NCCC5=NC(=CS5)C6=NC(=CS6)C(=O)NCCC[S+](C)C)O [Bleomycin] + NC(=O)Nc1cc(-c2cccc(F)c2)sc1C(=O)N[C@H]1CCCNC1 [AZD7762] (partner 0.2 µM); settings: main component drawn
Summary of the method: (§1)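 The day after seeding in 1536-well plates, lung cancer cell lines were treated by pin tool with a single drug, or with a fixed anchor-drug dose together with five library-drug doses (not always all listed) in √10 steps. After 5 days, a combined fix-and-stain solution (final 0.05% Triton X-100, 1% formaldehyde, 1 ug/ml Hoechst) was added. Nuclei counted on 4× images gave relative viability as treated counts over vehicle counts, reported as the median of duplicate plates.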

Bleomycin + Tozasertib = compound: CC1=C(N=C(N=C1N)[C@H](CC(=O)N)NC[C@@H](C(=O)N)N)C(=O)N[C@@H]([C@H](C2=CN=CN2)OC3C(C(C(C(O3)CO)O)O)OC4C(C(C(C(O4)CO)O)OC(=O)N)O)C(=O)N[C@H](C)[C@H]([C@H](C)C(=O)N[C@@H]([C@@H](C)O)C(=O)NCCC5=NC(=CS5)C6=NC(=CS6)C(=O)NCCC[S+](C)C)O [Bleomycin] + Cc1cc(Nc2cc(N3CCN(C)CC3)nc(Sc3ccc(NC(=O)C4CC4)cc3)n2)n[nH]1 [Tozasertib] (partner 0.1 µM); settings: main component drawn
Summary of the method: as §1

Bleomycin + Pemetrexed = compound: CC1=C(N=C(N=C1N)[C@H](CC(=O)N)NC[C@@H](C(=O)N)N)C(=O)N[C@@H]([C@H](C2=CN=CN2)OC3C(C(C(C(O3)CO)O)O)OC4C(C(C(C(O4)CO)O)OC(=O)N)O)C(=O)N[C@H](C)[C@H]([C@H](C)C(=O)N[C@@H]([C@@H](C)O)C(=O)NCCC5=NC(=CS5)C6=NC(=CS6)C(=O)NCCC[S+](C)C)O [Bleomycin] + Nc1nc2[nH]cc(CCc3ccc(C(=O)N[C@@H](CCC(=O)O)C(=O)O)cc3)c2c(=O)[nH]1 [Pemetrexed] (partner 0.2 µM); settings: main component drawn
Summary of the method: as §1

Etoposide + Phenformin = compound: COc1cc([C@@H]2c3cc4c(cc3[C@@H](O[C@@H]3O[C@@H]5CO[C@@H](C)O[C@H]5[C@H](O)[C@H]3O)[C@H]3COC(=O)[C@H]23)OCO4)cc(OC)c1O [Etoposide] + N=C(N)NC(=N)NCCc1ccccc1 [Phenformin] (partner 250 µM)
Summary of the method: as §1

Cell Line | relative viability (Bleomycin + AZD7762; first compound 0.01 µM) | relative viability (Bleomycin + AZD7762; first compound 0.03162 µM) | relative viability (Bleomycin + AZD7762; first compound 0.1 µM) | relative viability (Bleomycin + AZD7762; first compound 0.3162 µM) | relative viability (Bleomycin + AZD7762; first compound 1 µM) | relative viability (Bleomycin + Tozasertib; first compound 0.01 µM) | relative viability (Bleomycin + Tozasertib; first compound 0.03162 µM) | relative viability (Bleomycin + Tozasertib; first compound 0.1 µM) | relative viability (Bleomycin + Tozasertib; first compound 0.3162 µM) | relative viability (Bleomycin + Tozasertib; first compound 1 µM) | relative viability (Bleomycin + Pemetrexed; first compound 0.01 µM) | relative viability (Bleomycin + Pemetrexed; first compound 0.03162 µM) | relative viability (Bleomycin + Pemetrexed; first compound 0.1 µM) | relative viability (Bleomycin + Pemetrexed; first compound 0.3162 µM) | relative viability (Bleomycin + Pemetrexed; first compound 1 µM) | relative viability (Etoposide + Phenformin; first compound 0.01 µM) | relative viability (Etoposide + Phenformin; first compound 0.03162 µM) | relative viability (Etoposide + Phenformin; first compound 0.1 µM) | relative viability (Etoposide + Phenformin; first compound 0.3162 µM) | relative viability (Etoposide + Phenformin; first compound 1 µM)
NCI-H647 | 0.166 | 0.284 | 0.112 | 0.0842 | 0.0575 | 0.0723 | 0.103 | 0.0701 | 0.0484 | 0.0467 | 0.198 | 0.153 | 0.196 | 0.0716 | 0.0627 | 0.386 | 0.592 | 0.509 | 0.245 | 0.094
NCI-H650 | 0.949 | 1.07 | 0.723 | 0.515 | 0.36 | 0.584 | 0.627 | 0.57 | 0.231 | 0.188 | 0.708 | 0.951 | 0.78 | 0.479 | 0.34 | 0.445 | 0.508 | 0.394 | 0.363 | 0.226
NCI-H838 | 0.701 | 0.68 | 0.661 | 0.594 | 0.649 | 0.238 | 0.211 | 0.178 | 0.15 | 0.139 | 0.247 | 0.227 | 0.232 | 0.19 | 0.19 | 0.517 | 0.64 | 0.44 | 0.395 | 0.183
NCI-H1355 | 0.783 | 0.9 | 0.783 | 0.63 | 0.323 | 0.511 | 0.596 | 0.478 | 0.255 | 0.224 | 1 | 1.04 | 1.03 | 0.648 | 0.298 | 0.452 | 0.493 | 0.408 | 0.325 | 0.218
NCI-H1395 | 0.371 | 0.401 | 0.352 | 0.392 | 0.324 | 0.646 | 0.695 | 0.619 | 0.407 | 0.404 | 0.64 | 0.702 | 0.566 | 0.4 | 0.371 | 0.464 | 0.415 | 0.473 | 0.441 | 0.425
NCI-H1437 | 1.04 | 1.12 | 1.14 | 0.765 | 0.746 | 0.369 | 0.404 | 0.369 | 0.309 | 0.324 | 0.347 | 0.303 | 0.312 | 0.288 | 0.316 | 0.265 | 0.342 | 0.357 | 0.233 | 0.2
NCI-H1651 | 0.484 | 0.46 | 0.323 | 0.266 | 0.219 | 0.529 | 0.455 | 0.303 | 0.156 | 0.105 | 0.629 | 0.501 | 0.433 | 0.366 | 0.285 | 0.293 | 0.351 | 0.286 | 0.205 | 0.149
NCI-H1666 | 0.972 | 0.695 | 0.57 | 0.512 | 0.486 | 0.4 | 0.462 | 0.458 | 0.391 | 0.344 | 0.72 | 0.659 | 0.804 | 0.578 | 0.673 | 0.513 | 0.571 | 0.507 | 0.398 | 0.363
NCI-H1734 | 0.485 | 0.449 | 0.325 | 0.21 | 0.151 | 0.222 | 0.223 | 0.279 | 0.199 | 0.15 | 0.392 | 0.406 | 0.383 | 0.342 | 0.273 | 0.366 | 0.468 | 0.324 | 0.37 | 0.233
NCI-H1755 | 0.41 | 0.495 | 0.36 | 0.353 | 0.311 | 0.54 | 0.54 | 0.636 | 0.468 | 0.333 | 0.529 | 0.442 | 0.426 | 0.381 | 0.415 | 0.63 | 0.671 | 0.597 | 0.589 | 0.495
NCI-H1793 | 0.316 | 0.564 | 0.341 | 0.159 | 0.177 | 0.339 | 0.308 | 0.362 | 0.191 | 0.171 | 0.739 | 0.729 | 0.692 | 0.134 | 0.191 | 0.329 | 0.47 | – | 0.394 | 0.159
NCI-H1915 | 0.53 | 0.552 | 0.314 | 0.221 | 0.137 | 0.317 | 0.347 | 0.229 | 0.162 | 0.133 | 0.428 | 0.394 | 0.31 | 0.211 | 0.146 | 0.38 | 0.361 | 0.429 | 0.346 | 0.324
NCI-H1944 | 0.246 | 0.384 | 0.317 | 0.211 | 0.172 | 0.196 | 0.197 | 0.187 | 0.147 | 0.12 | 0.36 | 0.398 | 0.313 | 0.216 | 0.157 | 0.189 | 0.275 | 0.213 | 0.148 | 0.123
NCI-H1975 | 0.609 | 0.649 | 0.555 | 0.259 | 0.291 | 0.485 | 0.466 | 0.42 | 0.152 | 0.0955 | 0.267 | 0.252 | 0.219 | 0.175 | 0.166 | 0.398 | 0.486 | 0.382 | 0.293 | 0.17
